In PMC7887271, “Fast acting allosteric phosphofructokinase inhibitors block trypanosome glycolysis and cure acute African trypanosomiasis in mice” (Nature Communications, 2021):
Entries after “also recorded” stand apart in the source; their conditions may differ.

Legend:
Human hERG = Human hERG (Homo sapiens, UniProt Q12809); assay: Human hERG inhibition
Source text: Methods are described in Supplementary Methods 5 and 6. Enzyme assay results are means ± SD in multiple assays. ADME results are averages of n = 2 or 3 measurements in individual assays.

T. b. brucei Lister 427 = assay: Mouse model of stage 1 HAT; type: in vivo, T. b. brucei in female CD-1 mice
Description: T. b. brucei Lister 427 infection is cured by 1-day dosing. […] These parasites have a doubling time of ~6 h and infection with 1 × 10^5 parasites usually requires euthanasia of mice within 4–5 days of infection in the absence of drug treatment. Drug efficacy is determined by taking regular blood samples from infected mice and checking microscopically for parasitaemia. In this model of acute infection a single surviving parasite should proliferate to reach detectable levels in ~5 days and a 30-day period of no parasite detection is considered as cure.
For the mouse model of stage 1 HAT T. b. brucei Lister 427 parasites (1 × 10^5) were injected into a single donor female CD-1 mouse (University of Edinburgh; 6–8 weeks old) intraperitoneally in D-PBS containing 10 mM glucose. Parasites for subsequent stage 1 HAT infection were obtained from whole blood via cardiac puncture, under gaseous isoflurane anaesthesia. Parasites (1 × 10^3) harvested from the donor mouse were then injected into the peritoneum of female CD-1 mice (University of Edinburgh; 6–8 weeks old) in D-PBS containing 10 mM glucose. One day after infection, animals were either left untreated (n = 3) or dosed orally by gavage (n = 5) with CTCB compound in Cremophor EL: EtOH: D-PBS (30:10:60 v/v; Supplementary Methods 6.3).
T. b. brucei Lister 427 parasites (1 x 10^5) were injected into a single donor female CD-1 mouse (University of Edinburgh; 6-8 weeks old) intraperitoneally in D-PBS containing 10 mM glucose. Parasites for subsequent Stage 1 HAT infection were obtained from whole blood via cardiac puncture, under gaseous isoflurane anaesthesia as described above. Parasites (1 x 10^3) harvested from the donor mouse were then injected into the peritoneum of female CD-1 mice (University of Edinburgh; 6-8 weeks old) in D-PBS containing 10mM glucose. One day after infection, animals were either left untreated (n=3) or dosed orally by gavage (n=5) with CTCB compound in Cremophor EL: EtOH : D-PBS (30:10:60 v/v). The veterinary trypanocidal drug pentamidine isethionate (2.5 mg/kg for 4 consecutive days after infection) was administered intraperitoneally as control (n=3) for parasite elimination. Mice were monitored daily for parasitaemia day 1 post-infection onwards. Trypanosomes were quantified in blood samples from the tail vein by microscopy as previously described (12). Animals were sacrificed on the day that parasites were first detected in blood samples. (Supplementary Figure 11)

[1] = Metabolic stability, mouse liver microsomes; type: in vitro ADME; details: read-out: MLM Clint
Description: A HepG2 cytotoxicity assay was used to determine a cellular selectivity index. HepG2 cells were seeded into 96-well plates in EMEM medium. Compounds were assessed for their effect upon cellular viability (Supplementary Methods 5.1). Inhibition of CYP450 was determined using kits from BD Biosciences (Supplementary Methods 5.2). Metabolic stability was determined using mouse […] tested at a single concentration of 5 µM. Plasma protein binding was determined using mouse and human plasma at a single concentration of 10 µM (Supplementary Methods 5.4). All PK studies in mice were carried out by Pharmidex (Supplementary Methods 6.1).
Compounds were tested for their metabolic stability using mouse and human liver microsomes (MLM and HLM). The compounds were tested at a single concentration of 5 µM. The samples were crashed with acetonitrile and put through protein precipitation plates. The eluent was analysed by LC/MS or LC/MS/MS.

[2] = Tolerance studies and plasma levels after multiple oral dosing; type: in vivo; details: for tolerance of high doses: mice, oral; for Experimental plasma concentration measured @2hr after final dose: 2 h intervals
Description: All efficacy studies were carried out using CD-1 mice in accordance with the United Kingdom Animals (Scientific Procedures) Act (1986) under Home Office regulations. Studies were performed in SPF facilities at the University of Edinburgh under licence PPL 70/8102 and at the University of Glasgow under PPL 60/4442. The experiments were approved by the local ethics committees of the respective universities. Dosing regimens used in efficacy studies were first tested for tolerance in female CD-1 mice (University of Edinburgh; 6–8 weeks old). Animals were dosed orally by gavage with CTCB compounds following the dosing regimen for each individual experiment (n = 5; Supplementary Methods 6.2).
Dosing regimens used in efficacy studies were first tested for tolerance in female CD-1 mice (University of Edinburgh; 6-8 weeks old). Animals were dosed orally by gavage with CTCB compounds following the dosing regimen for each individual experiment (n=5) as indicated. Compounds were administered in a mixture containing Cremophor EL: EtOH: D-PBS (30:10:60 v/v). Animals were monitored for up to 8 hours post-dosing. On the final day of dosing, 2 hours after the final dose, whole blood was harvested from three mice via cardiac puncture, under gaseous isoflurane anaesthesia, to obtain plasma for analyses. The remaining two mice were monitored for several days post dosing. To avoid coagulation, 100 μl of 2% sodium citrate was utilised in the syringe during the procedure and blood samples subsequently transferred to heparin coated microtubules. Blood samples were centrifuged at 800 x g for 10 minutes at room temperature. The supernatant containing the plasma was transferred to a fresh tube for determination of compound levels and further PK analysis.

[3] = Mouse brain tissue binding; type: in vitro ADME; details: read-out: Mouse brain tissue binding fu (%)
[4] = three oral 50 mg kg^−1 doses 2 h apart daily over 2 days, n = 5

Chain of Human hERG (Q12809 whole entry): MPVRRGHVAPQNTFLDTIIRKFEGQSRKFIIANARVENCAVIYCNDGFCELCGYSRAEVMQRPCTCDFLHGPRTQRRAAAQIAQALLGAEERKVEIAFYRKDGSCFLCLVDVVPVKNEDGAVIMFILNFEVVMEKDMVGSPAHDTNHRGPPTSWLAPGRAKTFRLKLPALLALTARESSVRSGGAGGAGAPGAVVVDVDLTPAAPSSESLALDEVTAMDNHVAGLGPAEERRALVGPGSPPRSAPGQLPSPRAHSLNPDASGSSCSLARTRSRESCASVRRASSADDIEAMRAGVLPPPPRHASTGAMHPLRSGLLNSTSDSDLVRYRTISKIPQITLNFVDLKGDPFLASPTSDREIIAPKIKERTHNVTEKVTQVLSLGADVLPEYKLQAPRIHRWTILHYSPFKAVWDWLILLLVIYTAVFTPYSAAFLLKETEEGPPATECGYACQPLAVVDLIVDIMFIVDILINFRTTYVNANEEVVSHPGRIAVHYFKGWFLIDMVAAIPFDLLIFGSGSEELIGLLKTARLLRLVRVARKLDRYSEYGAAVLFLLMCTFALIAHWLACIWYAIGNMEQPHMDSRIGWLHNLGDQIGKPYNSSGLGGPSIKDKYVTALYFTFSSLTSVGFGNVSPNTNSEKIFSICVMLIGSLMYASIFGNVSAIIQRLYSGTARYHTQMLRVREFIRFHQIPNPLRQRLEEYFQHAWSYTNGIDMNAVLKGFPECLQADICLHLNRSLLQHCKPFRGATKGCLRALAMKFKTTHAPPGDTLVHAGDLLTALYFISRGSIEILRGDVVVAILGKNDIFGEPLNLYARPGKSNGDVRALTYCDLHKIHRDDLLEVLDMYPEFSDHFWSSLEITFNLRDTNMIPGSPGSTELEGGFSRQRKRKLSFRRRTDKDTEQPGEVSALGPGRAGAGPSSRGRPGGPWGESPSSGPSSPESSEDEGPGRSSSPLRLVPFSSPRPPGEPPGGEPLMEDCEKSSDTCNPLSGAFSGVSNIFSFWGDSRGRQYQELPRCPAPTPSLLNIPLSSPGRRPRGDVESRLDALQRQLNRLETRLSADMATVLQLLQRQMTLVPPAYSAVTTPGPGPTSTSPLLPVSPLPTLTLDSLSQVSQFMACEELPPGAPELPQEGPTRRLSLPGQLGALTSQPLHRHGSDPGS

Structure (SMILES)	IC50 (Human hERG) [µM]	outcome of treatment (T. b. brucei Lister 427; [4])	microsomal CLint at 5 µM [1] [µL/min/mg]	tolerance of high doses [2]	fraction unbound [3]	delay of onset of parasitaemia (T. b. brucei Lister 427; single oral doses of 50 mg kg^−1 over four consecutive days)	outcome of treatment (T. b. brucei Lister 427; three oral doses of 100 mg kg^−1 2 h apart on a single day, n = 5)	infected mice with complete cure (T. b. brucei Lister 427; three oral doses of 100 mg kg^−1 at 2 h intervals on 1 day, cure = no parasitaemia for >30 days)	outcome of treatment (T. b. brucei Lister 427; two daily oral doses at 25 mg/kg delivered 4 hours apart, n=5)	Experimental plasma concentration measured @2hr after final dose ([2]; 3 x 50 mg/kg oral) [µM]	Experimental plasma concentration measured @2hr after final dose ([2]; 3 x 100 mg/kg oral) [µM]	plasma levels ([2]; three doses at 100 mg kg^−1 given on two consecutive days) [µM]	autopsied livers ([2]; up to 300 mg kg^−1 per day)	apparent toxicity ([2]; up to 300 mg kg^−1 per day, cumulative dosing tolerance studies)
CN(C)CCn1ccc2c(ccn2Cc2ccc(F)c(Br)c2)c1=O [CTCB-508, 1-[(3-Bromo-4-fluorophenyl)methyl]-5-[2-(dimethylamino)ethyl] pyrrolo[3,2-c]pyridin-4-one]	4.75	either complete clearance or a significant increase in survival	56	well tolerated	0.017									
CN(C)CCn1ccc2c(ccn2Cc2ccc(Cl)c(Br)c2)c1=O [CTCB-470, 1-[(3-Bromo-4-chlorophenyl)methyl]-5-[2-(dimethylamino)ethyl] pyrrolo[3,2-c]pyridin-4-one]	1.69	either complete clearance or a significant increase in survival	91	well tolerated	0.006									
CN(C)CCn1ccc2c(ccn2Cc2ccc(Cl)c(Cl)c2)c1=O [CTCB-405, 1-[(3,4-Dichlorophenyl)methyl]-5-[2-(dimethylamino)ethyl] pyrrolo[3,2-c]pyridin-4-one]	3.98	parasite clearance; also recorded: complete cure; also recorded: either complete clearance or a significant increase in survival	70	well tolerated	0.008	up to 12 days	parasites are undetectable; also recorded: no recurrence of parasitaemia 30 days post infection	5/5	prolongs survival but does not improve efficacy	6.8 ± 2.1	9.8 ± 3.1	9.8	appeared normal	no apparent toxicity
